Laboratory results published in EP0627444B1, “Monoacetic derivatives of the peptides leu-phe-ala and ala-leu-phe and their use in identifying and destroying tumour cells, viruses and virus-carrying cells” (priority 1993, dated 1998).
Where “and” joins values, the source holds several entries; their conditions need not be identical. Identical values can stand only once.

How the values were obtained:
NK lymphocytes = assay: Activation test for NK lymphocytes assessed by means of rosette formation; assay type: in vivo, female mice belonging to BALB/C strain; conditions: Lot B controls, muramyl dipeptide only
Experimental: In carrying out such a test, all six isomers of the monoacetic derivative of the peptide were used, individually, both in normoergic (germ free) animals (lot A) and in animals previously immunized with muramyl dipeptide (lot B). The method and results of the test are hereinafter reported.
A number of groups, each consisting of 18 randomized animals, were inoculated with 0.1 ml/each of normal saline solution (controls) or 0.1 ml/each of monoacetic peptide in its 6 possible isomers dissolved in normal saline solution. The 17.5 mg/kg dose administered to the animals corresponds to 1/20 of the LD found with respect to these peptides.
Treated and control animals were sacrificed in groups of 6 on the 11th, 13th and 18th day after the inoculation of the normal saline solution or of the peptide. […]
Cell survival was assessed by means of the supravital staining technique with trypan blue. […]
FCS, at a 10% ratio, was added to the above mentioned suspension. Following 5 minutes of incubation at +37 °C and 5 minutes of centrifugation at 200 rpm, the samples were incubated at +4 °C for 18 hours prior to reading the results.
The lymphocytes encircled by 3 or more ram's erythrocytes were considered as rosette-forming lymphocytes. The significance was assessed by means of Student's "T" test. […]

Lewis Lung Carcinoma = assay: Lewis Lung Carcinoma, third set of experiments (with MDP); assay type: in vivo, female mice C57BI/6
Experimental: The tested compound was Ala-Leu-Phe = P1 (SF080) (17.5 mg/kg) in the model of tumour disease caused by Lewis Lung Carcinoma. The compound was also evaluated in combination with muramyl dipeptide (MDP).
Animals: female mice C57BI/6 (Charles River) the average weight of which was 20g were used. The experiment involved overall 48 mice.
The tumour cells of LLC were obtained from the fourth passage of tumour cells. The total number of cells was 2 x 10^5 in 0.1 ml of Hanks solution. The cells were injected subcutaneously into axillary region.
The peptide P1 was administered i.p. in suspension with propylenglycol (0.1 ml/50 ml) in physiological solution. […] The same way of administration as in tested animals (i.p.) was used.
The animals were divided into 4 groups each having 12 mice. In groups 2 and 3 MDP was administered subcutaneously in a dose of 100 µg (0.5 ml physiol. solution per mouse). The protocol of the test is as follows.
The animals in all groups were observed daily for tumour growth. In the control group the tumour growth was so rapid and the animals were in such a condition that the experiment was terminated after 18 days from the administration of tumour cells. Mice were sacrificed and tumour mass was excised and weighed. Both lobes of lungs were inspected for the presence of metastases.
The following parameters have been evaluated in this experiment: • a) the percentage of animals not having the tumour • b) the average weight of the tumour • c) the percentage of animals with metastases in lungs • d) the average number of metastases in case of positive animals
Statistical analysis was performed by the method of one factorial analysis of variance (ANOVA), Dunnett's test and chi-square test. […]

[1] = group 2: MDP 100 µg s.c. day -3, day 18

muramyl dipeptide [MDP]
rosette formation after preventive immunization (NK lymphocytes): significant decrement | Weight of tumours, AVG (Lewis Lung Carcinoma; [1]): 3.24 g | Weight of tumours, SUM (Lewis Lung Carcinoma; [1]): 29.16 g | average number of metastases, AVG (Lewis Lung Carcinoma; [1]): 1 | metastase free animals (Lewis Lung Carcinoma; [1]): 64% | number of metastases, SUM (Lewis Lung Carcinoma; [1]): 9 | tumour-free animals (Lewis Lung Carcinoma; [1]): 18% | number of metastases (meta) (Lewis Lung Carcinoma; individual animals, lungs, group 2: MDP 100 µg s.c. day -3, day 18): 1 and 3 (2×) and 0 (7×) and 2 | Weight of tumours (Lewis Lung Carcinoma; individual animals, group 2: MDP 100 µg subcutaneously day -3, 18 days after tumour cells): 4.88 g and 4.48 g and 1.97 g and 3.13 g and 0 g (2×) and 3.57 g and 2.72 g and 1.81 g and 4.11 g and 2.49 g
